The NIST ThermoML archive (doi:10.1021/je800530u)

Settings: Liquid, Closed cell (Static) method

CN1CCOCC1 [N-methylmorpholine]
Settings | vapor or sublimation pressure [kPa]
273.18 K | 0.6893
278.18 K | 0.9533
283.18 K | 1.3
288.18 K | 1.748
293.18 K | 2.322
298.18 K | 3.049
303.18 K | 3.96
308.18 K | 5.09
313.15 K | 6.471
313.18 K | 6.479
318.18 K | 8.174
323.15 K | 10.21
323.18 K | 10.22
328.18 K | 12.68
333.15 K | 15.58
333.18 K | 15.6
338.18 K | 19.06
343.15 K | 23.1
343.18 K | 23.13
348.18 K | 27.88
353.08 K | 33.27
353.15 K | 33.35
363.15 K | 47.02

NCCO [2-aminoethan-1-ol]
Settings | vapor or sublimation pressure [kPa]
283.15 K | 0.0158
283.34 K | 0.016
288.34 K | 0.02533
293.15 K | 0.0382
293.34 K | 0.03866
298.34 K | 0.05866
303.15 K | 0.0867
303.34 K | 0.08799
308.34 K | 0.1293
313.15 K | 0.1855
313.34 K | 0.188
318.34 K | 0.2693
323.15 K | 0.3762
323.34 K | 0.3813
328.34 K | 0.5333
333.15 K | 0.7274
333.34 K | 0.7359
338.34 K | 1.007
343.15 K | 1.347
343.34 K | 1.363
348.34 K | 1.827
353.15 K | 2.4
353.34 K | 2.425
358.34 K | 3.193
363.09 K | 4.113
363.15 K | 4.126

O [water]
Settings | vapor or sublimation pressure [kPa]
282.87 K | 1.177
283.15 K | 1.2
287.87 K | 1.636
292.87 K | 2.244
293.15 K | 2.284
297.87 K | 3.044
302.87 K | 4.081
303.15 K | 4.148
307.87 K | 5.416
312.87 K | 7.114
313.15 K | 7.222
317.87 K | 9.258
322.87 K | 11.94
323.15 K | 12.11
327.87 K | 15.27
332.87 K | 19.36
333.15 K | 19.62
337.87 K | 24.37
342.87 K | 30.44
343.15 K | 30.82
347.87 K | 37.76
352.87 K | 46.53
353.15 K | 47.07
357.87 K | 56.98
362.87 K | 69.35
363.15 K | 70.1
363.8 K | 71.88
